From patent US20240122938A1, “METHODS AND COMPOSITIONS FOR TREATING UVEAL MELANOMA” (INSERM (INSTITUT NATIONAL DE LA SANTÉ ET DE LA RECHERCHE …, priority 2019, published 2024)

Assays:
[1] = tested on: PARP, caspase 9 and caspase 3 in primary and metastatic uveal melanoma cells; assay: Western blot of PARP and caspases; assay type: cell-based, human
[2] = tested on: Mel270 cells; assay: Cell death / alive cells by Annexin V/DAPI FACS; assay type: cell-based, human
Description: FIG. 5: PERK dampens ABT-263 killing activity. (A) Q-PCR analysis of PERK level in Mel270 uveal melanoma cells treated with control (siCtl) or PERK (siPERK) siRNA for 48 hr. (B) Mel270 cells were treated with control (siCtl) or PERK (siPERK) siRNA for 48 hrs before being exposed to ABT-263 3 μM for 48 hr. FACS analyses of Annexin V/DAPI double staining in […] indicate alive (white) or dead (early, late apoptosis and necrosis in light grey) cells. (C) Mel270 cells were treated with ABT-263 5 μM or GSK2606414 5 μM alone or in combination for 48 h.
Cells were seeded at a density of 100 000 cells/well, in 6-well plate and treated with ABT-263 for indicated time. Cells were harvested using accutase enzyme, washed twice with ice-cold phosphate-buffered saline, resuspended in a buffer (Hepes 250 mM, NaCl 150 mM, KCl 5 mM, MgCl2 2 mM, CaCl2) 2 mM) with DAPI (1 μg/ml) and Annexin V-Alexa Fluor 647 conjugate (1/100) and incubated for 15 minutes at room temperature (25° C.) in the dark. Samples were immediately analyzed by a flow cytometer (MACS QUANT) using a laser at 405 nm excitation with a bandpass filter at 425 nm and 475 nm for DAPI detection and a laser at 635 nm excitation with a bandpass filter at 650 nm and 665 nm for Alexa Fluor 647 dye. Annexin and DAPI mono- or double positive cells were counted as dead cells.

[3] = single agent, phase I/II; cited from earlier work
[4] = tested on: Mel270 xenografts; assay: Subcutaneous tumor xenograft; assay type: in vivo, athymic nude mice; conditions: established Mel270 xenografts; 50 mg/kg intraperitoneal
Description: (§1) FIG. 2. Effect of ABT-263 on tumor growth in vivo effects. (A) Primary Mel270 and (B) metastatic OMM1 uveal melanoma cells were subcutaneously engrafted into athymic nude mice. Once the tumours reached 100 mm3, mice were treated daily with ABT-263. The arrow indicates the start of the treatment. The growth tumor curves were determined by measuring the tumor volume using the equation V=(L Å˜W2)/2. […] (C-D) Sub-cutaneous tumor weight from control (Ct) and ABT-263-treated mice is shown. Animal experiments were performed in accordance with French law and approved by a local institutional ethical committee. The animals were maintained in a temperature-controlled facility (22° C.) on a 12-h light/dark cycle and provided free access to food (standard laboratory chow diet from UAR, Epinay-S/Orge, France). Human Mel270 uvealmelanoma cells were subcutaneously inoculated into 8-week-old female, immune-deficient, athymic, nude FOXN1nu mice (Harlan Laboratory). When the tumors became palpable (0.1-0.2 cm3), the mice received an intraperitoneal injection of ABT-263 (50 mg/kg), dissolved in 10% DMSO 6 times per week. Control mice were injected with DMSO alone. The growth tumor curves were determined after measuring the tumor volume using the equation V=(L×W2)/2. At the end of the experiment, the mice were euthanized by cervical dislocation.

[5] = tested on: metastatic OMM1 xenografts; assay: Subcutaneous tumor xenograft; assay type: in vivo, athymic nude mice
Description: as §1

[6] = tested on: short-term cultures of primary uveal melanoma tumour; assay: Cell death in short-term cultures; assay type: cell-based, human; conditions: data not shown
Description: Human uveal melanoma cell lines and short-term cultures derived from different patients with metastatic malignant melanoma cells were grown in DMEM supplemented with 7% FBS at 37° C. in a humidified atmosphere containing 5% CO2. Lipofectamine™ RNAiMAX and opti-MEM medium were purchased from Invitrogen (San Diego, CA, USA). ABT-263 was obtained from Euromedex and qVD from Clinisciences. Cells were seeded at a density of 100 000 cells/well, in 6-well plate and treated with ABT-263 for indicated time. Cells were harvested using accutase enzyme, washed twice with ice-cold phosphate-buffered saline, resuspended in a buffer (Hepes 250 mM, NaCl 150 mM, KCl 5 mM, MgCl2 2 mM, CaCl2) 2 mM) with DAPI (1 μg/ml) and Annexin V-Alexa Fluor 647 conjugate (1/100) and incubated for 15 minutes at room temperature (25° C.) in the dark. Samples were immediately analyzed by a flow cytometer (MACS QUANT) using a laser at 405 nm excitation with a bandpass filter at 425 nm and 475 nm for DAPI detection and a laser at 635 nm excitation with a bandpass filter at 650 nm and 665 nm for Alexa Fluor 647 dye. Annexin and DAPI mono- or double positive cells were counted as dead cells.

[7] = tested on: ATF4 and CHOP in 92.1 cells; assay: Western blot of ER stress molecules; assay type: cell-based, human
Description: (§2) Western blotting was performed as previously described 25,26. Briefly, cell lysates (30 μg) were separated using SDS-PAGE, transferred onto a PVDF membrane and subsequently exposed to the appropriate antibodies, anti-BCL2 (ms-123-PO) was from neomarker, anti-caspase 3 (#610323) was from BD, anti-BAX (#8429) was from sigma, anti-PARP (#9542), anti-BCL-XL (#2762), anti-caspase 9 (#9502) and anti-PUMA (#4976) were from Cell Signaling Technology Inc, anti-MCL1 (#sc-819), anti-NOXA (#56169), and anti-HSP90 (#sc-13119) were from Santa Cruz biotechnology. The proteins were visualized using the ECL system (Amersham). The western blots shown are representative of at least 3 independent experiments.

[8] = tested on: ER stress molecules in Mel270 cells; assay: Western blot of ER stress molecules; assay type: cell-based, human
Description: Western blot of ER stress molecules in Mel270 cells treated with ABT-263 5 μM in the absence or presence of QVD-OPh 20 μM. Representative western blot are shown.
as §2, with “(Amersham).” for “(Amersham). The western blots shown are representative of at least 3 independent experiments.”

CC1(C)CCC(c2ccc(Cl)cc2)=C(CN2CCN(c3ccc(C(=O)NS(=O)(=O)c4ccc(N[C@H](CCN5CCOCC5)CSc5ccccc5)c(S(=O)(=O)C(F)(F)F)c4)cc3)CC2)C1 [ABT-263, 4-[4-[[2-(4-chlorophenyl)-5,5-dimethyl-1-cyclohexen-1-yl]methyl]-1-piperazinyl]-N-[[4-[[(1R)-3-(4-morpholinyl)-1-[(phenylthio)methyl]propyl]amino]-3-[(trifluoromethyl)sulfonyl]phenyl]sulfonyl]-benzamide]
cleavage of PARP, caspase 9 and caspase 3 ([1]; primary and metastatic cells): dose-dependent cleavage
full-length PARP protein and caspase 3 zymogen ([1]; time course, data not shown): time-dependent disappearance
cell death ([2]; ABT-263 3 μM): do not induce cell death
PARP cleavage and alive cell percentage, used alone ([2]; ABT-263 3 μM 48 hr): relative low effect
ABT-263 effect on viable cells combined with GSK2606414 ([2]; ABT-263 5 μM + GSK2606414 5 μM, 48 h): improved
ABT-263 effects and killing efficacy combined with PERK siRNA ([2]; siPERK 48 hrs then ABT-263 3 μM 48 hr): significantly improved
side effects [3]: thrombocytopenia
tumor growth [4]: partially effective
excised tumor weight versus control group ([5]; end of experiment): weighed significantly less
tumor growth ([5]; metastatic OMM1 xenografts, in some mice total tumor disappearance): marked tumor regression
killing effect [6]: killing effect was also found
ATF4 and CHOP level [7]: enhanced
ATF4 and CHOP level ([8]; Mel270 cells): enhanced
ER stress pathways (BIP, PERK, EIF2α, ATF4, IRE1α, XBP1, ATF6, CHOP) ([8]; kinetics analysis in Mel270): activates all branches of the ER stress pathways
